{"source": "paper PMC6647941", "about": "(ACS Omega, 2019)", "origin": "cited, not measured here", "conditions": "dopamine transporter tracer ref 12", "data": [{"smiles": "CN1[C@H]2CC[C@@H]1[C@@H](CN(CC[S-])CC[N-]CC[S-])[C@@H](c1ccc(Cl)cc1)C2.[O]=[99Tc+4]", "note": "[^99mTc-TRODAT-1]", "values": [{"measurement": "brain uptake", "result": 0.40, "unit": "% ID/g"}]}]}
